{
  "source": "patent US20140094484A1",
  "about": "“SUSTAINED DELIVERY FORMULATIONS OF RAPAMYCIN COMPOUNDS” (QLT Inc., priority 2012, published 2014)",
  "key": {"mTOR": {"test_system": "mTOR", "test": "Pharmacodynamic evaluation: Ser235/236 phosphorylation of S6 ribosomal protein in chorioretinal tissues (western blot)", "type": "in vivo, Long Evans rats", "method": "Upon euthanasia of the animal, the eyes were cut along the equator, separating the anterior and posterior segments. The vitreous was removed and the remaining back of eye (with intact retina, choroid and sclera) was placed in a labeled Nalgene Cryotube, immediately immersed in liquid nitrogen, and stored at −80° C. until ready to use. Upon lysis, tubes containing tissue were brought to room temperature to thaw. Tissues were lysed in 400 μL of lysis buffer (Cell Signaling CAT #: 9803) with protease inhibitor cocktail (Calbiochem CAT #: 539131) and beads in Matrix D Tubes (Q-biogene, CAT #: 6913-100) in the Fast Prep Instrument. Protein concentration of each sample was determined using the Pierce BCA Protein Determination Kit (Pierce, CAT #: 23225) and BSA as a standard. Samples were analyzed by SDS-PAGE, followed by western blotting. Primary antibodies included antibodies against phosphorylated S6 ribosomal protein, S6 ribosomal protein, and beta-actin antibody. Secondary antibodies included goat anti-Rabbit HRP linked antibodies, or Goat anti-Mouse HRP linked antibodies. Bound antibodies were detected using ECL or ECL plus Western Blotting Reagents. Densitometric evaluation was performed on blots scanned by Bio-Rad Multi-Analyst Software, and analyzed in MS Excel and GraphPad Prism.\nRapamycin inhibits mTOR activity, which then down-regulates Ser235/236 phosphorylation of the downstream target of mTOR, the S6 ribosomal protein. In order to evaluate the pharmacodynamic response of intravitreally administered rapamycin in the eye, the serine phosphorylation of S6 protein extracted from chorioretinal tissues was analyzed by western blot, and standardized by the total amount of S6 protein. […] The inhibitory effect of rapamycin on S6 phosphorylation occurred within the first 24 h and lasted for 7 days post-dosing, the longest follow-up timepoint."}, "[1]": {"test_system": "choroidal neovascularization (CNV)", "test": "Laser-induced CNV rat model, histological evaluation (CNV area, CD31 positive cell count)", "type": "in vivo, Long Evans rats", "method": "(§1) Thermal laser infrared light (diode laser 810 nm) at 200 mW for 0.075 seconds was delivered to the fundus of Long Evans rats using a slit lamp and a slit lamp adaptor. A total of 6 lesions with 75 μm diameter were placed in a circular pattern surrounding the optic disc on the posterior pole.\nIntravitreal injection was performed immediately after laser photocoagulation. Briefly, three days prior to the injection, 0.3% Ciloxan ointment was applied to the eye once daily. At the time of injection, the eye pocket was irrigated and the conjunctiva swabbed with 1.0% Betadine solution. […] The injection began when the bevel of the needle faced down and reached the vitreous about 1-2 mm in depth with the visual aid of a dissecting microscope. After injection, topical 0.3% Ciloxan ointment was applied to the eye once daily for 2 days.\nEyes were enucleated and chorioretinal tissues that contained the CNV lesions prepared and fixed for about 18 hours in formic acid alcohol, and then replaced with 70% alcohol until the specimen was processed to wax by a standard method. Slides were stained with mouse anti rat CD31 (Chemicon, UK) by a standard immunohistochemistry protocol. This briefly consisted of removal of endogenous peroxidase enzymes with methanol and hydrogen peroxide, primary antibody as above, and the secondary donkey antibody anti mouse conjugated to biotin. Streptavidin ABC and Vector VIP substrate (Vector labs, Burlingame Calif.) were further added. Haematoxylin was used as a counterstain. Representative images before and after the center of each CNV lesion were taken using the 20× objective of an Olympus BX61 microscope fitted with a Spot RT colour camera (Diagnostic instruments, MI USA). Each image was applied to the standard image analysis macro in the software Image pro to identify the mean of lesion area for each CNV and the mean of CD31 positive cell counts (i.e. endothelial cells) within the CNV lesion area. All measurements were generated by two independent readers masked to the treatments. The data was analyzed in Excel and GraphPad Prism. The 80% correlation found between readers was deemed acceptable."}, "[2]": {"test_system": "Human umbilical endothelial cells", "test": "VEGF-activated endothelial cell proliferation, [3H]-thymidine incorporation", "type": "cell-based", "settings": "[3H]-thymidine incorporation after 48 hours", "method": "(§2) Targeted tissue concentrations were estimated from in vitro experiments assessing the inhibitory effects of rapamycin on endothelial cell proliferation and cytokine release from immune cells. Human umbilical endothelial cells were activated with Vascular Endothelial Growth Factor (VEGF) and incubated with various concentrations of rapamycin. Cell proliferation was evaluated by quantifying [3}H-thymidine incorporation after 48 hours. […] The IC50 for the release of TNFalpha from Lipopolysaccharide and IFNgamma treated THP-1 cells (monocytic cell line) was ˜1 nM and the IC50 for the release of IFNgamma from human peripheral blood T cells stimulated with phytohemagglutanin was ˜2 nM."}, "[3]": {"test_system": "THP-1 cells (monocytic cell line)", "test": "TNFalpha release from Lipopolysaccharide and IFNgamma treated THP-1 cells", "type": "cell-based", "settings": "Homo sapiens", "method": "as §2"}, "[4]": {"test_system": "choroidal neovascularization (CNV)", "test": "Laser-induced CNV rat model, fluorescein angiography evaluation", "type": "in vivo, Long Evans rats", "settings": "for effect on CNV development: intravitreal injection immediately after laser photocoagulation", "method": "as §1\nIntravitreal injection was performed immediately after laser photocoagulation. Briefly, three days prior to the injection, 0.3% Ciloxan ointment was applied to the eye once daily. At the time of injection, the eye pocket was irrigated and the conjunctiva swabbed with 1.0% Betadine solution. A 30-gauge needle connected to a […], Hamilton syringe that contained 5 μL carboxymethylcellulose (CMC)-based Rapamycin suspension (0.5, 5, 10 or 40 mg/mL) or CMC vehicle alone was inserted 1 mm posterior to the corneoscleral limbus. The injection began when the bevel of the needle faced down and reached the vitreous about 1-2 mm in depth with the visual aid of a dissecting microscope. After injection, topical 0.3% Ciloxan ointment was applied to the eye once daily for 2 days.\nFA was performed on the 14th day after intravitreal injection of Rapamycin. Briefly, a 25-gauge butterfly catheter was placed in the tail vein on an anesthetized animal and a Heparin-Lock solution (0.50 mL of 10,000 IU/mL Heparin Sodium with 0.95 mL 0.9% Saline) was used to fill the catheter line to maintain intravenous access. A dose of 10 mg/kg of Diofluor 10% (Fluorescein Sodium 10%) was delivered through the tail vein, followed by a flush of sterile saline to ensure full delivery of Diofluor 10%. An infusion pump (Becton-Dickinson) connected to a 60 cc syringe was used to infuse the Diofluor 10% at a constant rate of 6 mL/min (8.4-13.2 pounds per square inches) to allow for consistency in the synchronization of the fluorescein bolus injection and the angiogram acquisition. Photographs were taken with a fluorescence fundus camera at 1-10, 30, 60, 90, 180, and 300 sec after Diofluor 10% administration. The leakiness of CNV was assessed by two independent readers masked to the treatment."}, "[5]": {"test_system": "human peripheral blood T cells", "test": "IFNgamma release from T cells stimulated with phytohemagglutanin", "type": "cell-based", "settings": "T-cell", "method": "as §2"}},
  "note": "Entries after “also recorded” stand apart in the source; their conditions may differ.",
  "data": [
    {"smiles": "CO[C@H]1C[C@@H]2CC[C@@H](C)[C@@](O)(O2)C(=O)C(=O)N2CCCC[C@H]2C(=O)O[C@H]([C@H](C)C[C@@H]2CC[C@@H](O)[C@H](OC)C2)CC(=O)[C@H](C)/C=C(\\C)[C@@H](O)[C@@H](OC)C(=O)[C@H](C)C[C@H](C)/C=C/C=C/C=C/1C", "note": "[rapamycin, Rapamycin]", "values": [
      {"measurement": "level of phosphorylated Ser235/236 on S6 ribosomal protein, standardized by total S6 protein", "setting": "mTOR; intravitreal, chorioretinal tissues, day 1, 3, 7 post-dosing, vs untreated or vehicle injected eyes", "result": "significantly reduced"},
      {"measurement": "time within which the inhibitory effect on S6 phosphorylation occurred", "setting": "mTOR; intravitreal, rat", "result": "≤ 24", "unit": "h"},
      {"measurement": "time the inhibitory effect on S6 phosphorylation lasted post-dosing", "setting": "mTOR; intravitreal, rat, longest follow-up timepoint", "result": 7, "unit": "days"},
      {"measurement": "activation of its target mTOR", "setting": "mTOR; rat model of laser-induced CNV", "result": "suppressed the activation of its target mTOR at all tested time points"},
      {"measurement": "reduction in CNV area compared to the vehicle group", "setting": "[1]; 0.5 μg intravitreal", "result": 15, "unit": "%"},
      {"measurement": "reduction in CNV area compared to the vehicle group", "setting": "[1]; 5 μg intravitreal", "result": 55, "unit": "%"},
      {"measurement": "reduction in CNV area compared to the vehicle group", "setting": "[1]; 50 μg intravitreal", "result": 50, "unit": "%"},
      {"measurement": "overall reduction in the number of endothelial cells within the CNV area compared to the vehicle group", "setting": "[1]; 50 μg, 5 μg and 0.5 μg intravitreal", "result": "50-60%"},
      {"measurement": "CNV area and number of endothelial cells in the CNV lesions after treatment", "setting": "[1]; intravitreal 50, 5, 0.5 μg", "result": "reduced after rapamycin treatment in a dose-dependent manner"},
      {"measurement": "IC50", "setting": "[2]", "result": 69, "unit": "nM"},
      {"measurement": "IC50", "setting": "[3]", "result": "~1", "unit": "nM"},
      {"measurement": "response in the rat CNV model", "setting": "[4]; 5 μg intravitreally injected", "result": "nearly a complete response"},
      {"measurement": "effect on CNV development", "setting": "[4]; rat", "result": "dose dependent inhibition of CNV development"},
      {"measurement": "effect on CNV development", "setting": "[4]; rat, listed as Rapamycin", "result": "potent inhibitor of CNV; also recorded: inhibited the development of CNV"},
      {"measurement": "incidence of developing leaky CNV 2 weeks after laser photocoagulation", "setting": "[4]; single intravitreal injection of 0.5 μg rapamycin in CMC, rat", "result": 65, "unit": "%"},
      {"measurement": "incidence of developing leaky CNV 2 weeks after laser photocoagulation", "setting": "[4]; single intravitreal injection of 5 μg rapamycin in CMC, rat", "result": 5, "unit": "%"},
      {"measurement": "incidence of developing leaky CNV 2 weeks after laser photocoagulation", "setting": "[4]; single intravitreal injection of 50 μg rapamycin in CMC, rat", "result": 2, "unit": "%"},
      {"measurement": "IC50", "setting": "[5]", "result": "~2", "unit": "nM"}
    ]},
    {"smiles": "CC1(C)O[C@@H]2C[C@H]3[C@@H]4CCC5=CC(=O)C=C[C@]5(C)[C@@]4(F)[C@@H](O)C[C@]3(C)[C@]2(C(=O)CO)O1", "note": "[triamcinolone acetonide (TA), triamcinolone acetonide]", "values": [
      {"measurement": "inhibition of CNV area", "setting": "[1]; TA intravitreal 200 μg", "result": "approximately 50%"},
      {"measurement": "inhibition of endothelial cell count", "setting": "[1]; TA intravitreal 200 μg", "result": "~60", "unit": "%"},
      {"measurement": "incidence of leaky CNV at the 14-day follow-up", "setting": "[4]; intravitreal dose of 200 μg, rat", "result": 10, "unit": "%"}
    ]}
  ]
}
